Data as given in ChEMBL document CHEMBL5038649, “Chemical Space Expansion of Flavonoids: Induction of Mitotic Inhibition by Replacing Ring B with a 10π-Electron System, Benzo[b]thiophene” (J Nat Prod, 2022).
pIC50: −log10 of the molar value.

How the values were obtained:
Format in all cases: functional, cell-based
A549 = assay: Antiproliferative activity against human A549 cells assessed as reduction in cell viability after 72 hrs by SRB assay; conditions: A549, 72 h
[1] = Antiproliferative activity against human KB-VIN cells assessed as reduction in cell viability after 72 hrs by SRB assay; conditions: KBVIN
MCF7 = assay: Antiproliferative activity against human MCF7 cells assessed as reduction in cell viability after 72 hrs by SRB assay; conditions: MCF7, 72 h
MDA-MB-231 = assay: Antiproliferative activity against human MDA-MB-231 cells assessed as reduction in cell viability after 72 hrs by SRB assay; conditions: MDA-MB-231, 72 h
KB = assay: Antiproliferative activity against human KB cells assessed as reduction in cell viability after 72 hrs by SRB assay

| Structure (SMILES) | pIC50 (A549) | pIC50 [1] | pIC50 (MCF7) | pIC50 (MDA-MB-231) | pIC50 (KB) |
| --- | --- | --- | --- | --- | --- |
| Cc1ccc(O)c(C(=O)/C=C/c2csc3ccccc23)c1 | 5.32 | 5.37 | 5.11 | 5.22 | 5.31 |
| O=C(/C=C/c1ccccc1)c1csc2ccccc12 | 5.04 | 5.24 | < 5.00 | 5.17 | 5.20 |
| O=C(/C=C/c1ccc(Cl)cc1)c1csc2ccccc12 | 5.18 | 5.26 | 5.01 | 5.14 | 5.09 |
| O=C(/C=C/c1cc2ccccc2s1)c1cc(Cl)cc(Cl)c1O | 5.16 | 5.24 | 5.00 | 5.12 | 5.11 |
| COc1cc(O)c(C(=O)/C=C/c2csc3ccccc23)cc1OC | 6.35 | 6.57 | 6.15 | 6.16 | 6.28 |
| COc1cc2c(=O)c(-c3csc4ccccc34)coc2c(OC)c1OC | < 5.00 | < 5.00 | < 5.00 | < 5.00 | < 5.00 |
| O=c1c(-c2ccccc2)coc2ccccc12 [ISOFLAVONE] | < 5.00 | < 5.00 | < 5.00 | < 5.00 | < 5.00 |
| CCOc1ccc(O)c(C(=O)/C=C/c2csc3ccccc23)c1 | 5.27 | 5.39 | 5.12 | 5.17 | 5.24 |
| O=C(/C=C/c1csc2ccccc12)c1ccccc1O | 5.28 | 5.27 | 5.18 | 5.28 | 5.21 |
| CC(C)=CCc1cc(C(=O)/C=C/c2csc3ccccc23)c(O)cc1O | 5.22 | 5.27 | 5.13 | 5.05 | 5.12 |
| COc1cc2occ(-c3csc4ccccc34)c(=O)c2cc1OC | < 5.00 | < 5.00 | < 5.00 | < 5.00 | < 5.00 |
| COc1c(OC(C)C)cc2occ(-c3csc4ccccc34)c(=O)c2c1O | 5.14 | < 5.00 | < 5.00 | < 5.00 | < 5.00 |
| O=C(/C=C/c1csc2ccccc12)c1cccc(Cl)c1 | < 5.00 | < 5.00 | < 5.00 | < 5.00 | < 5.00 |
| COc1c(OC(C)C)cc2occ(-c3ccccc3)c(=O)c2c1OC(C)C | < 5.00 | < 5.00 | < 5.00 | < 5.00 | < 5.00 |
| O=C(/C=C/c1ccccc1)c1cccc2ccccc12 | 5.30 | 5.27 | 5.01 | 5.22 | 5.21 |
| COc1ccc(/C=C/C(=O)c2csc3ccccc23)cc1OC | 5.28 | 5.33 | 5.03 | 5.18 | 5.31 |
| O=C(/C=C/c1c[nH]c2ccccc12)c1cc(Cl)ccc1O | 6.12 | 6.10 | 5.24 | 6.00 | 6.04 |
| O=C(/C=C/c1ccccc1)c1ccccc1 [CHALCONE] | < 5.00 | < 5.00 | < 5.00 | < 5.00 | < 5.00 |
| CCOc1cc2occ(-c3csc4ccccc34)c(=O)c2c(OCC)c1OC | 5.59 | 6.17 | 5.51 | 6.00 | 5.38 |
| COc1c(OC(C)C)cc2ccc(-c3cc(=O)c4ccccc4o3)cc2c1OC(C)C | < 5.00 | 5.09 | < 5.00 | < 5.00 | < 5.00 |
| COc1cc(O)c(C(=O)/C=C/c2csc3ccccc23)c(OC)c1OC | 5.28 | 5.31 | 5.11 | 5.16 | 5.17 |
| COc1ccc(O)c(C(=O)/C=C/c2cc3ccccc3s2)c1 | < 5.00 | < 5.00 | < 5.00 | < 5.00 | < 5.00 |
| CC(C)Oc1ccc(/C=C/C(=O)c2csc3ccccc23)cc1 | < 5.00 | < 5.00 | < 5.00 | < 5.00 | < 5.00 |
| O=C(/C=C/c1cc2ccccc2s1)c1cc(Cl)ccc1O | < 5.00 | < 5.00 | < 5.00 | < 5.00 | < 5.00 |
| COc1c(OC(C)C)cc2occ(-c3ccccc3)c(=O)c2c1O | < 5.00 | < 5.00 | < 5.00 | < 5.00 | < 5.00 |
| COc1ccc(C(=O)/C=C/c2csc3ccccc23)c(O)c1 | 5.25 | 5.32 | 5.12 | 5.13 | 5.25 |

| Structure (SMILES) | pIC50 (A549) | pIC50 [1] | pIC50 (MCF7) | pIC50 (MDA-MB-231) | pIC50 (KB) |
| --- | --- | --- | --- | --- | --- |
| O=C(/C=C/c1csc2ccccc12)c1cc(Br)ccc1O | 6.18 | 6.33 | 5.98 | 6.08 | 6.12 |
| O=C(/C=C/c1csc2ccccc12)c1cc(Cl)cc(Cl)c1O | 5.43 | 6.08 | 5.24 | 5.48 | 5.34 |
| CC(C)Oc1ccc(O)c(C(=O)/C=C/c2csc3ccccc23)c1 | 5.19 | 5.25 | 5.18 | 5.07 | 5.00 |
| O=C1/C(=C/c2ccccc2)Oc2ccccc21 [(Z)-AURONE] | < 5.00 | < 5.00 | < 5.00 | < 5.00 | < 5.00 |
| COc1ccc(O)c(/C=C/C(=O)c2csc3ccccc23)c1 | 5.33 | 5.36 | 5.23 | 5.27 | 5.30 |
| O=C(/C=C/c1csc2ccccc12)c1cc(Br)cc(Br)c1O | 5.38 | 6.00 | 5.24 | 5.37 | 5.32 |
| CCOc1c(OC)cc2occ(-c3csc4ccccc34)c(=O)c2c1OC | 5.32 | 6.08 | 5.40 | 5.28 | 5.40 |
| COc1c(OC(C)C)cc2occ(-c3csc4ccccc34)c(=O)c2c1OC(C)C | 5.05 | 5.14 | < 5.00 | < 5.00 | < 5.00 |
| COc1ccc(O)c(C(=O)/C=C/c2csc3ccccc23)c1 | 6.24 | 6.40 | 6.12 | 6.12 | 6.19 |
| COc1c(OC(C)C)cc2c(c1OC(C)C)C(=O)/C(=C/c1csc3ccccc13)O2 | < 5.00 | < 5.00 | < 5.00 | < 5.00 | < 5.00 |
| O=c1c(-c2csc3ccccc23)coc2ccccc12 | < 5.00 | < 5.00 | < 5.00 | < 5.00 | < 5.00 |
| COc1c(OC(C)C)cc2oc(-n3cncn3)c(-c3csc4ccccc34)c(=O)c2c1OC(C)C | < 5.00 | 5.30 | < 5.00 | < 5.00 | < 5.00 |
| COc1cccc(/C=C/C(=O)c2csc3ccccc23)c1 | 5.26 | 5.27 | 5.12 | 5.21 | 5.24 |
| COc1c(O)cc2occ(-c3csc4ccccc34)c(=O)c2c1O | < 5.00 | < 5.00 | < 5.00 | < 5.00 | < 5.00 |
| O=C1/C(=C/c2csc3ccccc23)Oc2ccccc21 | < 5.00 | < 5.00 | < 5.00 | < 5.00 | < 5.00 |
| O=C(/C=C/c1ccccc1)c1c(O)ccc2ccccc12 | < 5.00 | < 5.00 | < 5.00 | < 5.00 | < 5.00 |
| O=C(/C=C/c1csc2ccccc12)c1cc(F)ccc1O | 5.15 | 5.27 | < 5.00 | 5.08 | 5.13 |
| COc1c(OC(C)C)cc2c(c1O)C(=O)/C(=C/c1csc3ccccc13)O2 | < 5.00 | < 5.00 | < 5.00 | < 5.00 | < 5.00 |
| COc1c(OC(C)C)cc2oc(-n3cncn3)c(-c3ccccc3)c(=O)c2c1OC(C)C | < 5.00 | < 5.00 | < 5.00 | < 5.00 | < 5.00 |
| COc1ccc(/C=C/C(=O)c2csc3ccccc23)cc1 | < 5.00 | 5.09 | < 5.00 | < 5.00 | < 5.00 |
| O=C(/C=C/c1csc2ccccc12)c1ccc2ccccc2c1O | 5.14 | 5.09 | < 5.00 | < 5.00 | < 4.40 |
| COc1ccc(OC)c(C(=O)/C=C/c2csc3ccccc23)c1 | 5.39 | 5.43 | 5.26 | 5.27 | 5.34 |
| O=C(/C=C/c1csc2ccccc12)c1cc2c(cc1O)OCO2 | 5.32 | 5.68 | 5.16 | 5.21 | 5.29 |
| O=C(/C=C/c1cc2ccccc2s1)c1cc(Br)ccc1O | < 5.00 | < 5.00 | < 5.00 | < 5.00 | < 5.00 |
| COc1c(O)cc2occ(-c3ccccc3)c(=O)c2c1O | < 5.00 | < 5.00 | < 5.00 | < 5.00 | < 5.00 |
| COc1cc2occ(-c3csc4ccccc34)c(=O)c2c(OC)c1O | < 5.00 | < 5.00 | < 5.00 | < 5.00 | < 5.00 |
